Values joined by “and” are separate entries in the source; they are usually repeats but may differ in a detail not shown here. Equal values may be shown once.
Settings: 283.15 K, Liquid, Vibrating tube method

CCCCCC(=O)OCC(COC(=O)CCCCC)(COC(=O)CCCCC)COC(=O)CCCCC [pentaerythritol tetrahexanoate]
Settings | mass density
15225 kPa | 1012.8 kg/m3
15241 kPa | 1012.9 kg/m3
15260 kPa | 1012.8 kg/m3
15276 kPa | 1012.7 kg/m3
15292 kPa | 1012.8 kg/m3
15311 kPa | 1012.8 kg/m3
15327 kPa | 1013 kg/m3
15343 kPa | 1012.8 kg/m3
15363 kPa | 1012.9 kg/m3
15379 kPa | 1013.1 kg/m3
15395 kPa | 1012.9 kg/m3
15412 kPa | 1013 kg/m3
15432 kPa | 1012.9 kg/m3
15448 kPa | 1012.9 kg/m3
15467 kPa | 1013.1 kg/m3
15483 kPa | 1013.1 kg/m3
15500 kPa | 1013.1 kg/m3
15519 kPa | 1012.8 kg/m3
15536 kPa | 1013.1 kg/m3
15552 kPa | 1012.9 kg/m3
15572 kPa | 1013 kg/m3
15589 kPa | 1013 kg/m3
15606 kPa | 1013 kg/m3
15626 kPa | 1013 kg/m3
15642 kPa | 1013.1 kg/m3
15659 kPa | 1012.9 kg/m3
15679 kPa | 1013 kg/m3
15696 kPa | 1013.1 kg/m3
15713 kPa | 1013.1 kg/m3
15733 kPa | 1013 kg/m3
15750 kPa | 1013.1 kg/m3
15767 kPa | 1013.1 kg/m3
15788 kPa | 1013 kg/m3
15805 kPa | 1013.2 kg/m3
15823 kPa | 1013.2 kg/m3
15841 kPa | 1013.2 kg/m3
15861 kPa | 1013.1 kg/m3
15878 kPa | 1013.2 kg/m3
16066 kPa | 1013.4 kg/m3
16083 kPa | 1013.3 kg/m3
16104 kPa | 1013.4 kg/m3
16122 kPa | 1013.3 kg/m3
16139 kPa | 1013.3 kg/m3
16157 kPa | 1013.3 kg/m3
16178 kPa | 1013.2 kg/m3
16195 kPa | 1013.3 kg/m3
16214 kPa | 1013.4 kg/m3
16230 kPa | 1013.4 kg/m3
16247 kPa | 1013.2 kg/m3
16266 kPa | 1013.4 kg/m3
16282 kPa | 1013.4 kg/m3
16299 kPa | 1013.5 kg/m3
16315 kPa | 1013.4 kg/m3
16334 kPa | 1013.3 kg/m3
16351 kPa | 1013.4 kg/m3
16368 kPa | 1013.6 kg/m3
16388 kPa | 1013.5 kg/m3
16404 kPa | 1013.4 kg/m3
16421 kPa | 1013.5 kg/m3
16441 kPa | 1013.4 kg/m3
16457 kPa | 1013.5 kg/m3
16474 kPa | 1013.5 kg/m3
16491 kPa | 1013.6 kg/m3
16511 kPa | 1013.5 kg/m3
16528 kPa | 1013.6 kg/m3
16545 kPa | 1013.6 kg/m3
16565 kPa | 1013.7 kg/m3
16582 kPa | 1013.5 kg/m3
16598 kPa | 1013.5 kg/m3
16619 kPa | 1013.6 kg/m3
16636 kPa | 1013.6 kg/m3
16653 kPa | 1013.6 kg/m3
16673 kPa | 1013.6 kg/m3
16690 kPa | 1013.7 kg/m3
16707 kPa | 1013.6 kg/m3
16727 kPa | 1013.6 kg/m3
16745 kPa | 1013.6 kg/m3
16762 kPa | 1013.6 kg/m3
16782 kPa | 1013.6 kg/m3
16800 kPa | 1013.6 kg/m3
16817 kPa | 1013.7 kg/m3
16837 kPa | 1013.7 kg/m3
16854 kPa | 1013.6 kg/m3
16872 kPa | 1013.7 kg/m3
16893 kPa | 1013.7 kg/m3
16911 kPa | 1013.8 kg/m3
16929 kPa | 1013.8 kg/m3
16951 kPa | 1013.7 kg/m3
16969 kPa | 1013.8 kg/m3
16988 kPa | 1013.8 kg/m3
17008 kPa | 1013.8 kg/m3
17031 kPa | 1013.9 kg/m3
17050 kPa | 1013.8 kg/m3
17097 kPa | 1013.8 kg/m3
17099 kPa | 1013.9 kg/m3
17100 kPa | 1013.9 kg/m3
17101 kPa | 1013.7 kg/m3
17113 kPa | 1013.8 kg/m3
17138 kPa | 1013.8 kg/m3
17147 kPa | 1013.8 kg/m3
17148 kPa | 1013.8 kg/m3 and 1014 kg/m3
17156 kPa | 1013.8 kg/m3
17174 kPa | 1013.8 kg/m3
17193 kPa | 1013.9 kg/m3
17211 kPa | 1013.9 kg/m3
17233 kPa | 1013.8 kg/m3
17252 kPa | 1013.9 kg/m3
17270 kPa | 1014 kg/m3
17291 kPa | 1013.9 kg/m3
17309 kPa | 1013.8 kg/m3
17331 kPa | 1014 kg/m3
17350 kPa | 1013.9 kg/m3
17373 kPa | 1013.9 kg/m3
17392 kPa | 1014 kg/m3
17411 kPa | 1014.1 kg/m3
17430 kPa | 1014 kg/m3
17453 kPa | 1014.1 kg/m3
17472 kPa | 1014 kg/m3
17491 kPa | 1014.1 kg/m3
17514 kPa | 1014.1 kg/m3
17534 kPa | 1014.1 kg/m3
17555 kPa | 1014 kg/m3
17574 kPa | 1014.1 kg/m3
17593 kPa | 1014.1 kg/m3
17616 kPa | 1014.1 kg/m3
17635 kPa | 1014.1 kg/m3
17656 kPa | 1014 kg/m3
17672 kPa | 1014.2 kg/m3
17688 kPa | 1014.2 kg/m3
17708 kPa | 1014 kg/m3
17723 kPa | 1014.2 kg/m3
17739 kPa | 1014.3 kg/m3
17758 kPa | 1014.2 kg/m3
17775 kPa | 1014.2 kg/m3
17791 kPa | 1014.2 kg/m3
17807 kPa | 1014.3 kg/m3
17827 kPa | 1014.2 kg/m3
17843 kPa | 1014.2 kg/m3
17861 kPa | 1014.3 kg/m3
17877 kPa | 1014.2 kg/m3
17892 kPa | 1014.2 kg/m3
17907 kPa | 1014.3 kg/m3
17925 kPa | 1014.3 kg/m3
17939 kPa | 1014.3 kg/m3

— the NIST ThermoML archive (doi:10.1021/je060271a)
